Assay [1] has as its target Serine/threonine-protein kinase MRCK beta (Homo sapiens) (UniProt Q9Y5S2). The assay is described as follows: Selectivity interaction (Kinase panel (Z-LYTE Assay)) EUB0001632a CDC42BPB. Conditions: at 10 µM.
For assay [2], the target named is T1, Serine/threonine-protein kinase Chk1 (Homo sapiens) (UniProt O14757).
T1 sequence (whole entry): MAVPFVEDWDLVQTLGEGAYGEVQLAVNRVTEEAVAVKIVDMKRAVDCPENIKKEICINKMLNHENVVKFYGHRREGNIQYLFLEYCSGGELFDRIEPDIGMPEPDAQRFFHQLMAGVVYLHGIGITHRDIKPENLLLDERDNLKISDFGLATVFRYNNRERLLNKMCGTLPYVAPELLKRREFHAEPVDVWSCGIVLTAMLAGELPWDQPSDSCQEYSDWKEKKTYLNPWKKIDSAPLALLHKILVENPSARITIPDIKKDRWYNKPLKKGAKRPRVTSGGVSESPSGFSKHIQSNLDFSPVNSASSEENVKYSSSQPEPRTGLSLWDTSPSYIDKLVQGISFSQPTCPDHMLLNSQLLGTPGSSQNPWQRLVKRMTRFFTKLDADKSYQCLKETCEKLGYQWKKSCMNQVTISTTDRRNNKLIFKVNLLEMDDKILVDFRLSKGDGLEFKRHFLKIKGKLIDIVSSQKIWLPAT
The assay is described as follows: Selectivity interaction (KinomeScan (DiscoverX)) EUB0001619a CHEK1. The note with it: at 1 µM.

Assay [3] has as its system Mast/stem cell growth factor receptor Kit (Homo sapiens), P10721 [V559D,T670I]. The note with it: at 10 µM.
The subject of assay [4] is Mast/stem cell growth factor receptor Kit (Homo sapiens), P10721 [V559D,V654A]. The assay is described as follows: (§1) Selectivity interaction (KinomeScan (DiscoverX)) EUB0000607a KIT. Conditions: at 10 µM.
The target in assay [5] is Mast/stem cell growth factor receptor Kit (Homo sapiens, UniProt P10721). Described as §1. The note with it: at 10 µM.
Assay [6] relates to Mast/stem cell growth factor receptor Kit (Homo sapiens), P10721 [L576P]. The description is as §1. Conditions: at 10 µM.
Chain of Mast/stem cell growth factor receptor Kit (Homo sapiens), P10721 [L576P] (P10721 whole entry L576P): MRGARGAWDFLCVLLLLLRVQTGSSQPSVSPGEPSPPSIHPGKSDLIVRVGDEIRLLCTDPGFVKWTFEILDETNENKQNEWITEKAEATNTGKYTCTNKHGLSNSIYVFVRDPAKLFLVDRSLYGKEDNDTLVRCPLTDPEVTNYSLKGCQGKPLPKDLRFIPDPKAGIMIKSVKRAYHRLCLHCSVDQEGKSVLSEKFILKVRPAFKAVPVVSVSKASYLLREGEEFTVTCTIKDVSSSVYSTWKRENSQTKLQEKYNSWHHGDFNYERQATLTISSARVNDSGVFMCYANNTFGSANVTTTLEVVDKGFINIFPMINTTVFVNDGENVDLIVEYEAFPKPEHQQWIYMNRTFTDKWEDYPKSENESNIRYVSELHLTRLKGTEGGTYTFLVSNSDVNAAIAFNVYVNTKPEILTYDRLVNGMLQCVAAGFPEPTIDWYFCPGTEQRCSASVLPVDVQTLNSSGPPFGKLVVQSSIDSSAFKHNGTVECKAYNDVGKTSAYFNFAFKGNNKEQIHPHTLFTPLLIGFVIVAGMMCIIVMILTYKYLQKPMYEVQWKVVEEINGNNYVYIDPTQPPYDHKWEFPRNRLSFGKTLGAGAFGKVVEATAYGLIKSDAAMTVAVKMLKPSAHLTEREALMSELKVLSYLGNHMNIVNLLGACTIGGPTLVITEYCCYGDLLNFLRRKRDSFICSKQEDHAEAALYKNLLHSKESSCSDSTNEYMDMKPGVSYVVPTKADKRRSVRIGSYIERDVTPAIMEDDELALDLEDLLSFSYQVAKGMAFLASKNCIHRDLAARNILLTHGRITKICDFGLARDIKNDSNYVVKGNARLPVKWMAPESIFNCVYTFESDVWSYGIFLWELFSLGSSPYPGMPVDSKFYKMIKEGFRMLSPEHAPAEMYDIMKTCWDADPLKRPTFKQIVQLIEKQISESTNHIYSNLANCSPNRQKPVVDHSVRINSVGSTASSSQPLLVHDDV
The subject of assay [7] is Mast/stem cell growth factor receptor Kit (Homo sapiens), P10721 [V559D,T670I]. The assay is described as §1. Conditions: at 10 µM.
Assay [8] deals with Mast/stem cell growth factor receptor Kit (Homo sapiens), P10721 [V559D]. The assay is described as §1. Conditions: at 10 µM.
Chain of Mast/stem cell growth factor receptor Kit (Homo sapiens), P10721 [V559D] (P10721 whole entry V559D): as the sequence (P10721 whole entry L576P) above, with V559D, P576L counted along it
Assay [9] has as its system Mast/stem cell growth factor receptor Kit (Homo sapiens), P10721 [D816V]. The description is as §1. Conditions: at 10 µM.
Assay [10] concerns Mast/stem cell growth factor receptor Kit (Homo sapiens), P10721 [D816H]. The assay is described as §1. The note with it: at 10 µM.
In assay [11] the test system is Mast/stem cell growth factor receptor Kit (Homo sapiens), P10721 [A829P]. The assay is described as §1. The note with it: at 10 µM.
Assay [12] concerns the target Cyclin-dependent kinase 11B (Homo sapiens) (UniProt P21127). The assay is described as follows: Selectivity interaction (KinomeScan (DiscoverX)) EUB0000607a CDK11B. The note with it: at 10 µM.
Assay [13] deals with Calcium/calmodulin-dependent protein kinase kinase 2 (Homo sapiens) (UniProt Q96RR4). The assay is described as follows: Selectivity interaction (KinomeScan (DiscoverX)) EUB0000045b CAMKK2.
Chain of Calcium/calmodulin-dependent protein kinase kinase 2 (Homo sapiens) (Q96RR4 2-588 limits assumed): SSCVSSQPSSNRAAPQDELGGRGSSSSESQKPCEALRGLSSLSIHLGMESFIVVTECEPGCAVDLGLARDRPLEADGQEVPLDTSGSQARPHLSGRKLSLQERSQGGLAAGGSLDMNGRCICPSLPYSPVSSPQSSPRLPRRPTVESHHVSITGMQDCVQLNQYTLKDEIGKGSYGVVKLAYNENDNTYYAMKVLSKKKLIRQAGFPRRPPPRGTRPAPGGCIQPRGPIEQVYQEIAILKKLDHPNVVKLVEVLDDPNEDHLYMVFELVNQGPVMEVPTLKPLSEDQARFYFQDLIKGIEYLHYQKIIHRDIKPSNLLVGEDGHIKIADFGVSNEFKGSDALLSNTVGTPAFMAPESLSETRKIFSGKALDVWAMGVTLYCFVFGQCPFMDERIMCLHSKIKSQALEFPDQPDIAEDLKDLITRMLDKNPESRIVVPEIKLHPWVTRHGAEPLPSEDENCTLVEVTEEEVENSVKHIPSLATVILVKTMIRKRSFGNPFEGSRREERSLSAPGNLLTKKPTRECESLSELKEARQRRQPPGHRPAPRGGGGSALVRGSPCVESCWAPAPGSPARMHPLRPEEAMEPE
The target in assay [14] is Tyrosine-protein kinase Fyn (Homo sapiens) (UniProt P06241). The assay is described as follows: Selectivity interaction (ProQinase) EUB0000171b FYN.
Chain of Tyrosine-protein kinase Fyn (Homo sapiens) (P06241 2-537 limits assumed): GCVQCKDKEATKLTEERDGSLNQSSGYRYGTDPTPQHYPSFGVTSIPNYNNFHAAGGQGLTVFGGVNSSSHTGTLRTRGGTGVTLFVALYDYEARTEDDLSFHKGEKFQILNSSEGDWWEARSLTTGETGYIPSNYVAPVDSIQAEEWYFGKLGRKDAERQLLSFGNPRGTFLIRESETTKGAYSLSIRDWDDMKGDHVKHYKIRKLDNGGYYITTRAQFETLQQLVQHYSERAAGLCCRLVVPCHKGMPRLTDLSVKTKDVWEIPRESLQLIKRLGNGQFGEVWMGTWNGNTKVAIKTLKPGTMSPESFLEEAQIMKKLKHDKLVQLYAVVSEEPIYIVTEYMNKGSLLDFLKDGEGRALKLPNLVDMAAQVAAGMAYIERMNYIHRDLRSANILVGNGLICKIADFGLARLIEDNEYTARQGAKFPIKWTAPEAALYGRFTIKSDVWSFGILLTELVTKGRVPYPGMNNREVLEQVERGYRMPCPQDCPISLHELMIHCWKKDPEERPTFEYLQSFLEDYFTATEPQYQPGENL
In assay [15] the target is T2, Myosin-IIIb (Homo sapiens) (UniProt Q8WXR4).
T2 sequence (whole entry): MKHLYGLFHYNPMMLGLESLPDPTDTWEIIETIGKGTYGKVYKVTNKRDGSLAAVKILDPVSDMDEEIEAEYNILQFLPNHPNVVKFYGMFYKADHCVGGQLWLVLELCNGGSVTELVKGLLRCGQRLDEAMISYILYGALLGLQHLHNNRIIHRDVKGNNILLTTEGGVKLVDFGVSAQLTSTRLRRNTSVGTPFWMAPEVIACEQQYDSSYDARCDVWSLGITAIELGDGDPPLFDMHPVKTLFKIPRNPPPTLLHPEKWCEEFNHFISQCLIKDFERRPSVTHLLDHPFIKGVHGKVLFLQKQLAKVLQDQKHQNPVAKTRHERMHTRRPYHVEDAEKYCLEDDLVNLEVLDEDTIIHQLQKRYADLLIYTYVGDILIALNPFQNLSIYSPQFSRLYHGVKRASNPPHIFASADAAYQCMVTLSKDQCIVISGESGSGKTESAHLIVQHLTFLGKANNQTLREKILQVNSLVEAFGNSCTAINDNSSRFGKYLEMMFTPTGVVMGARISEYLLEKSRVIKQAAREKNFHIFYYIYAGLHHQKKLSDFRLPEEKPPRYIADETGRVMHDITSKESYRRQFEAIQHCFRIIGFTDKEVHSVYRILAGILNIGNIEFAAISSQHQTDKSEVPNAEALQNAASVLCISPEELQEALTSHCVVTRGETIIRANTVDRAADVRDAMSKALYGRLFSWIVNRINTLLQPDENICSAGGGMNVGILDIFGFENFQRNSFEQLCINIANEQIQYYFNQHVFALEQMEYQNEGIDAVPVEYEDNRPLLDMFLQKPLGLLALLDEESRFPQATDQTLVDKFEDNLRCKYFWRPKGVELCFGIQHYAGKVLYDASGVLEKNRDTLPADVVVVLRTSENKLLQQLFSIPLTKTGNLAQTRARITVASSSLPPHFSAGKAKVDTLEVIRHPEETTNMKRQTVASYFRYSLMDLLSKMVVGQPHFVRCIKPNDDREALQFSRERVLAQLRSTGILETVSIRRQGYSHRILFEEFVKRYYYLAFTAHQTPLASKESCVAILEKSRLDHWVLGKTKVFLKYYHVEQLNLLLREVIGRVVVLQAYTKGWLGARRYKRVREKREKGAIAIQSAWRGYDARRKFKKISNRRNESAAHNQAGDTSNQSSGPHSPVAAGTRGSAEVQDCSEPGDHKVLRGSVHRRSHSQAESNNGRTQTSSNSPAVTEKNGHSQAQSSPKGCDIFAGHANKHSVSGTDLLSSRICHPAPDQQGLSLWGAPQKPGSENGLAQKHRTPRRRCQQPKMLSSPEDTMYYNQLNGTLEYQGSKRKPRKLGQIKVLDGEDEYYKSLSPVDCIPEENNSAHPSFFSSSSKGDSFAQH
The assay is described as follows: Selectivity interaction (Ambit KINOMEscan and KiNATiv profiling in Jurkat cells) EUB0000090b MYO3B. The note with it: at 1 µM. The format is cell-based.

The target of assay [16] is Mitogen-activated protein kinase kinase kinase kinase 4 (Homo sapiens, UniProt O95819). Briefly: Selectivity interaction (KinomeScan (DiscoverX)) EUB0000655a MAP4K4. Conditions: at 10 µM.

These results are taken from ChEMBL document CHEMBL5465560, “Selectivity Literature for EUbOPEN Chemogenomic Library” (2024).

Chain of Mast/stem cell growth factor receptor Kit (Homo sapiens), P10721 [V559D,T670I] (P10721 whole entry V559D/T670I): as the sequence (P10721 whole entry L576P) above, with V559D, P576L, T670I counted along it
Chain of Cyclin-dependent kinase 11B (Homo sapiens) (P21127 whole entry): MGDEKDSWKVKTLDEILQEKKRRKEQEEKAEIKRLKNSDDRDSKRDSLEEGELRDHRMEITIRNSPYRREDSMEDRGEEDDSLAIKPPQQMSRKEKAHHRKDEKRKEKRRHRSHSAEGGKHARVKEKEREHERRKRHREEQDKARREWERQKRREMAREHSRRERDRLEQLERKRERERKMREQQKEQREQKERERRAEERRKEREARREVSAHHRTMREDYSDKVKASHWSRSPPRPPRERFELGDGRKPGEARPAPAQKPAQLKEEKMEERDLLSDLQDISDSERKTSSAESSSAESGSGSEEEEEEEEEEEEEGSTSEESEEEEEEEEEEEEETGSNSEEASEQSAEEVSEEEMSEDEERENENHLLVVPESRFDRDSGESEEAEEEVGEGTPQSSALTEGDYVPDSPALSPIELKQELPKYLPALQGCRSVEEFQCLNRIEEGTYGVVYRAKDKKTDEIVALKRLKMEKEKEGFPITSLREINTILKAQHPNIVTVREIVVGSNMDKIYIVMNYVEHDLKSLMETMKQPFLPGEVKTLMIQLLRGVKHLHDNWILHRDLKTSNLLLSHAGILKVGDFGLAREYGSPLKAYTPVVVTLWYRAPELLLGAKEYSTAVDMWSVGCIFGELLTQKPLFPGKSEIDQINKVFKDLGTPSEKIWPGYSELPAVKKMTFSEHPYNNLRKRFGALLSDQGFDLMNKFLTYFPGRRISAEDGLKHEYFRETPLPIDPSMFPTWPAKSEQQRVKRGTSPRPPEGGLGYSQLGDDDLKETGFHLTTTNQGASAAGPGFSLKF

For `Cn1cc(-n2cnc3c(NCc4nc5cc(Cl)c(Cl)cc5[nH]4)nc(N4CCOCC4)nc32)cn1`, in assay [1], the % of control was determined as 3.7%.

For the compound `N#Cc1cccc(-c2c[nH]c3ncnc(N4CCOCC4)c23)c1`, in [2], the % of control stood at 94%.

Take `CCN(CC)CCCCNc1ncc2cc(-c3cc(OC)cc(OC)c3)c(NC(=O)NC(C)(C)C)nc2n1`: the % of control in [3] stood at 100%.

Consider `CNC(=O)Nc1ccc(-c2nc(N3CC4CCC(C3)O4)c3cnn(C4CCC5(CC4)OCCO5)c3n2)cc1`, for which the % of control in assay [4] was determined as 100%; in [5] it was 91%; in assay [6] it was 85%; in assay [7] it was 100%; in [8], 85%; in assay [9], 82%. The % of control in [10] is 86%; in assay [11], 89%; in [12] it was 100%.

For `C=CC(=O)Nc1cc(-n2c(=O)ccc3cnc4ccc(-c5ccc(NS(C)(=O)=O)cc5)cc4c32)ccc1C`, the % of control in assay [13] (at 1 µM) was found to be 100%; in assay [13] (at 10 µM), 92%.

As for `C=CC(=O)Nc1cccc(C(=O)Nc2ccc(Nc3cc(-c4[nH]c(SC)nc4C)ccn3)cc2)c1`, the % of control stood at 101% in assay [14] (at 1 µM) and 100% in assay [14] (at 5 µM).

In assay [15], `CN(C)C/C=C/C(=O)Nc1ccc(C(=O)N2CCCC(Nc3ncc(Cl)c(-c4c[nH]c5ccccc45)n3)C2)cc1` (stereo not drawn) showed a % of control of 100%.

Compound `CN(C)CCOc1ccc(-c2nc(-c3ccncc3)c(-c3ccc4c(c3)CC/C4=N\O)[nH]2)cc1` displayed a % of control in assay [16] of 27%.
